Literature values as cited in US10835585B2, “Shared neoantigens” (priority 2015, dated 2020).

What was measured:
[1] = test system: serum prostate specific antigen (PSA); conditions: advanced hormone refractory prostate cancer; personalized vaccination combined with a low dose of estramustine
[2] = test system: ovarian carcinoma patients
[3] = more than 25 clinical trials
healthy human volunteers = conditions: 8 healthy volunteers, one single s.c. administration, versus 4 placebo subjects; whole blood

Row | Molecule | patients with ≥50% decrease in serum prostate specific antigen (PSA) [1] [%] | generation of NY-ESO-1-specific CD4+ and CD8+ T-cell and antibody responses ([2]; 1.4 mg poly-ICLC and Montanide added to OLP, compared to OLP alone or OLP and Montanide, s.c.) | patients showing induction of CD4+ and CD8+ T cell, as well as antibody responses to the peptide ([2]; ovarian carcinoma patients, poly-ICLC with NY-ESO-1 peptide vaccine and Montanide, phase 1) [%] | toxicity profile [3] | differential expression of genes versus placebo (healthy human volunteers)
1 | C[C@]12CC[C@@H]3c4ccc(OC(=O)N(CCCl)CCCl)cc4CC[C@H]3[C@@H]1CC[C@@H]2O [estramustine] | 54 |  |  |  | 
2 | Polyinosinic-Polycytidylic Acid-poly-L-lysine Carboxymethylcellulose [poly-ICLC] |  | markedly enhanced | > 90 | relatively benign toxicity profile | up to 212 genes
